Source: US9580399B2, “Geranyl flavonoid derivative with improved water solubility, a method for preparing the same, and a method for treating cancer using the same” (KOREA RESEARCH INSTITUTE OF BIOSCIENCE AND BIOTECHNOLOGY, priority 2014, dated 2017)
In brackets after ≈: the same amount, converted by molar mass.

Legend:
[1] = Physicochemical properties: solubility; details: for Solubility: Insolubility: solvents in which insoluble; for Solubility: Fusibility: solvents in which soluble
[2] = test system: various human cancer cell lines; test: Cancer cell growth inhibition (WST-1), all cell lines together; type: cell-based
Procedure: To investigate whether or not the geranyl flavonoid derivative of the present invention had cancer cell growth inhibiting effect, various human cancer cell lines were treated with CG-901-2 and then cancer cell growth was observed. Particularly, the human breast cancer cell lines MDA-MB-231 and MDA-MB-468, the prostate cancer cell line DU-145, the colorectal cancer cell line HCT116, the pancreatic cancer cell line AsPC-3, or the colon cancer cell line SW620 was distributed in 10% FBS medium, followed by culture in a 37° C. 5% CO2 incubator. The attached grown cells were collected by using trypsin-EDTA. The obtained cells were counted by hematocytometer, which were distributed in 96-well plate at the density of 5,000 cells/well (MDA-MB-231, MDA-MB-468, and DU-145) or at the density of 7,000 cells/well (HCT116 and SW620). 10% FBS medium was added to the plate, followed by culture in a 37° C. 5% CO2 incubator. 24 hours later, the cells were treated with the compound CG-901-2 prepared in Example <1-2> dissolved in DMSO at the concentration of 20 or 50 μg/ml. The negative control was treated with 0.1% DMSO. The cells were further cultured for 24 more hours. […] Then, OD450 was measured with ELISA reader (Bio-Rad) to investigate the time-dependent cancer cell growth rate. […]

STAT3 = target: T1, STAT3 (Homo sapiens, UniProt P40763); test: Western blotting of STAT3 expression and phosphorylation in DU-145 cells; type: cell-based; details: DU-145, 5, 10 or 20 μM, 24 hours
T1 construct: the prostate cancer cell line DU-145 was distributed in three 60-mm plates; endogenous in cells; host or cells: DU-145 prostate cancer cells
T1 sequence (P40763 whole entry): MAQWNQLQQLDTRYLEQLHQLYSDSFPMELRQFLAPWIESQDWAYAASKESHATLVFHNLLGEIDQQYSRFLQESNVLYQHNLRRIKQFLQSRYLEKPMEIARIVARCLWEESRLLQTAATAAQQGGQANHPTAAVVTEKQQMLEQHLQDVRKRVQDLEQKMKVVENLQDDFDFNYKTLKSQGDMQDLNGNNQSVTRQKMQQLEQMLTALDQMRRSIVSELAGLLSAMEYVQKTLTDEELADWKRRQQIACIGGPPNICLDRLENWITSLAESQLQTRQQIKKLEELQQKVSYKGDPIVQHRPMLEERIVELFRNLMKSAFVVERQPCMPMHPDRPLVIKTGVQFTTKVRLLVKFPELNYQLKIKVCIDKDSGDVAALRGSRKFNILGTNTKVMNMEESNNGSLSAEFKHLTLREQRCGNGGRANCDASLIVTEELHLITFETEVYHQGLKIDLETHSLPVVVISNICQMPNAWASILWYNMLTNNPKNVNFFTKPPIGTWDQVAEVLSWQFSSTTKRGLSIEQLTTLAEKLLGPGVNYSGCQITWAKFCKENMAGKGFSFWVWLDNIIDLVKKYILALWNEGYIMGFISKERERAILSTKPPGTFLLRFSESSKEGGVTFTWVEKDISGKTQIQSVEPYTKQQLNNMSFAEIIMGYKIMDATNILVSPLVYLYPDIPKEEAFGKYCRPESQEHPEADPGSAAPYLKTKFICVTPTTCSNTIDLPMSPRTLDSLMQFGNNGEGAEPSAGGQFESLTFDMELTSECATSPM
Procedure: To investigate whether or not the novel synthesized geranyl flavonoid derivative of the present invention, CG-901-2, had the activity of inhibiting STAT3 protein activity by inhibiting STAT3 phosphorylation, Western blotting was performed to measure the expression of the phosphorylated STAT3. Particularly, the prostate cancer cell line DU-145 was distributed in three 60-mm plates containing 10% FBS (fetal bovine serum) medium at the density of 80,000 cells/plate, followed by culture in a 37° C. 5% CO2 incubator for 24 hours. Upon completion of the culture, the CG-901-2 compound prepared in Example <1-2> was treated to each plate at the concentration of 5, 10, or 20 μM. The negative control was treated with 0.25% DMSO, followed by culture for 24 hours. Then, the medium was discarded from each plate. The plate was then washed with PBS, to which 200 μl of Ripa lysis buffer was added. The cells attached on the plate were collected by using a scraper. […] The lysate mixture was placed in a 96-well plate, and […] was measured using ELISA reader in order to quantify the protein. After the quantification, the lysate containing the equal amount of protein was prepared, which was mixed with lysis buffer and 5× dye, leading to the preparation of a loading sample. […]

cyclin A = test: Western blotting of STAT3 target protein expression in DU-145 cells; type: cell-based, human; details: DU-145, 20 μM
Procedure: (§1) To investigate the changes of the expression of STAT3 target genes according to the decrease of STAT3 protein phosphorylation caused by the treatment of geranyl flavonoid derivative CG901-2, the expressions of cyclin A that is well known as a STAT3 target protein, Mcl-1 (Induced myeloid leukemia cell differentiation protein-1), and survivin were examined. Particularly, DU-145 cells were treated with the compound CG-901-2 at the concentration of 20 μM by the same manner as described in Example <2-1>, followed by culture. Western blotting was performed to investigate the expressions of AD (cyclin A), Mcl-1, and survivin. β-actin was used as the control to compare the expression levels.

Mcl-1 = test: as above; type: cell-based, human; details: DU-145, 20 μM
Procedure: as §1

survivin = test: as above; type: cell-based, human; details: DU-145, 20 μM
Procedure: as §1

DU-145 tumor = test: In vivo tumor growth inhibition in prostate cancer mouse model; details: 50 mg/kg oral, once a day, 10 times, compared with negative control
Procedure: Particularly, the human originated prostate cancer cell line DU-145 was inoculated in the serum-free medium, followed by culture in a 37° C. 5% CO2 incubator. The cultured DU-145 cells were prepared at the density of 3×10^7 cells/ml. Each BALB/c specific pathogen free female mouse (Nara Biotech Co.) at 6 weeks was administered with the cells at the dose of 9×10^6 cells/0.3 ml via subcutaneous injection in the auxiliary region between the right shoulder and breast wall, leading to the cancer cell transplantation. After the transplantation, the mouse was raised for 25 days until the generated tumor induced by the transplanted cancer cells grew to a measurable size. As a result, the prostate cancer mouse model was constructed. The tumor induced by the transplanted cancer cells was measured in three dimensions which were length, width, and height of the tumor, by using a vernier caliper, […], and the size of the tumor was calculated by the below mathematical formula 1. […] The tumor size was measured on day 0, day 10, day 14, day 16, day 18, day 21, day 23, and day 25. […] The size and weight of the control tumor was measured and compared with the above.

[3] = Cancer cell growth inhibition (WST-1); type: cell-based; details: Homo sapiens; Prostate cancer, 24 hours
Procedure: (§2) To investigate whether or not the geranyl flavonoid derivative of the present invention had cancer cell growth inhibiting effect, various human cancer cell lines were treated with CG-901-2 and then cancer cell growth was observed. Particularly, the human breast cancer cell lines MDA-MB-231 and MDA-MB-468, the prostate cancer cell line DU-145, the colorectal cancer cell line HCT116, the pancreatic cancer cell line AsPC-3, or the colon cancer cell line SW620 was distributed in 10% FBS medium, followed by culture in a 37° C. 5% CO2 incubator. The attached grown cells were collected by using trypsin-EDTA. The obtained cells were counted by hematocytometer, which were distributed in 96-well plate at the density of 5,000 cells/well (MDA-MB-231, MDA-MB-468, and DU-145) or at the density of 7,000 cells/well (HCT116 and SW620). 10% FBS medium was added to the plate, followed by culture in a 37° C. 5% CO2 incubator. 24 hours later, the cells were treated with the compound CG-901-2 prepared in Example <1-2> dissolved in DMSO at the concentration of 20 or 50 μg/ml. The negative control was treated with 0.1% DMSO. The cells were further cultured for 24 more hours. Then, 10 μl of the coloring agent, 2-[4-iodophenyl]-3-[4-nitrophenyl]-5-[2,4-disulfophenyl]-2H-tetrazolium (monosodium salt, WST-1; Roche) was treated to the cultured cells, followed by culture for 2 hours. Then, OD450 was measured with ELISA reader (Bio-Rad) to investigate the time-dependent cancer cell growth rate. For 24 hours from the treatment of the compound, the concentration of the compound that allowed only 50% of cancer cell population to survive was calculated based on the above growth rate, and the result was defined as GI50.

HCT116 = test: Cancer cell growth inhibition (WST-1); type: cell-based; details: Homo sapiens, HCT-116; Colorectal cancer, 24 hours
Procedure: as §2

MDA-MB-468 = test: Cancer cell growth inhibition (WST-1); type: cell-based; details: Homo sapiens, Breast cancer, 24 hours
Procedure: as §2

SW620 = test: Cancer cell growth inhibition (WST-1); type: cell-based; details: Homo sapiens, SW-620; Colon cancer, 24 hours
Procedure: as §2

Row | Solubility: Insolubility [1] | Solubility: Fusibility [1] | solubility ([1]; water) [µM] | GI50 ([2]; Homo sapiens, MDA-MB-231, MDA-MB-468, DU-145, HCT116, AsPC-3, SW620, read-out: GI50 concentration range of each cancer cell line) [µM] | expression of STAT3 (STAT3) | phosphorylation of STAT3 (STAT3) | GI50 [3] [µM] | GI50 (HCT116) [µM] | GI50 (MDA-MB-468) [µM] | GI50 (SW620) [µM] | Structure (SMILES) | cancer cell growth rate ([2]; compared with negative control) | expression of cyclin A (cyclin A) | expression of Mcl-1 (Mcl-1) | expression of survivin (survivin) | tumor size growth inhibited (DU-145 tumor) | weight of the tumor reduced (DU-145 tumor; day 25) [%]
1 | Hexane | Alcohol, DMSO | 300 (≈ 144 µg/mL) | – | – | – | – | – | – | – | CC(C)=CCC[C@]1(C)C=Cc2c(CCC(=O)c3ccc(OCCN(C)C)cc3O)ccc(O)c2O1 [CG-901-1, (R)-1-(4-(2-(dimethylamino)ethoxy)-2-hydroxyphenyl)-3-(8-hydroxy-2-methyl-2-(4-methylpent-3-enyl)-2H-chromen-5-yl)propan-1-one] | – | – | – | – | – | –
2 | Hexane, Ethylacetate | Alcohol, H2O | – | 15 to 30 | not changed | reduced CG-901-2 dose-dependently | 20 | 25 | 30 | 50 | CC(C)=CCC[C@]1(C)C=Cc2c(CCC(=O)c3ccc(OCCN(C)C)cc3O)ccc(O)c2O1.Cl [CG-901-2, (R)-2-(3-hydroxy-4-(3-(8-hydroxy-2-methyl-2-(4-methylpent-3-enyl)-2H-chromen-5-yl)propanoyl)phenoxy)-N,N-dimethylethanaminium chloride] | reduced over the time | down-regulated | down-regulated | down-regulated | approximately 38.8% | 40.5
